# Measurements taken from article PMC10210398, “Genomic, functional and structural analyses elucidate evolutionary innovation within the sea anemone 8 toxin family” (BMC Biology, 2023).
# Entries after “also recorded” stand apart in the source; their conditions may differ. Bridge positions count the residues as written; N and C are the ends. Ends that are not written are not given here.
# Experiments:
# hKV1.3 = type: cell-based, human
# Description: CHO cells (ATCC) were transiently transfected with plasmids encoding hKV1.1, hKV1.2, hKV10.1, hKCa3.1, hTRPA1, or hNaV1.7 using Lipofectamine 2000 (Invitrogen, Carlsbad, CA) following the manufacturer’s protocol, then cultured under standard conditions. The cells were co-transfected with a plasmid encoding green fluorescent protein (GFP) at a molar ratio of 10:1 except for hKV1.1, hKV1.2, and hKCa3.1 for which GFP-tagged ion channel vectors were used. Currents were recorded 24–36 h after transfection. […] HEK 293 cells stably expressing the hKv11.1 channel (hERG, hKCNH2 gene, a kind gift from H. Wulff, University of California, Davis, CA) and mKCa1.1 channel (BKCa, hKCNMA1, a kind gift from C. Beeton, Baylor College of Medicine, Houston, TX) were used. hTRPV1 channels were expressed in a stable manner in CHO cells. Transfected cells were washed twice with 2 mL of ECS (see below) and re-plated onto 35-mm polystyrene cell culture dishes (Cellstar, Greiner Bio-One). hKV1.3 currents were recorded from activated peripheral blood mononuclear cells (PBMCs, see below) 3–4 days after activation. Human veinous blood was obtained from anonymised healthy donors. PBMCs were isolated using Histopaque1077 (Sigma-Aldrich Hungary, Budapest, Hungary) density gradient centrifugation. Cells obtained were resuspended in RPMI 1640 medium containing 10% foetal calf serum (Sigma-Aldrich Hungary, Budapest, Hungary), 100 μg/mL penicillin, 100 μg/mL streptomycin, and 2 mM L-glutamine, seeded in a 24-well culture plate at a density of 5–6 × 10^5 cells/mL, and grown in a 5% CO2 incubator at 37 °C for 3–5 days. […]
# Conventional whole-cell patch-clamp electrophysiology was used to record ionic currents. […] Data were analysed using Prism 8 (GraphPad, CA, USA) and ClampFit 10.5 software (Molecular Devices Inc., Sunnyvale, CA). […] For hKCa3.1, hTRPA1 and hTRPV1, the reversal potential for K^+ was determined and only those currents were analysed for which the reversal potential fell into the range of the theoretical reversal potential ± 5 mV (− 86.5 ± 5 mV for KCa3.1, and 0 ± 5 mV for hTRPA1 and hTRPV1).
# Drosophila melanogaster = test: Injection activity assay in Drosophila melanogaster; type: in vivo; conditions: for flies dead / flies paralysed: n = 8; for number of flies dead / number of flies paralysed: of 8 flies
# Description: The activity of the recombinant SA8 peptide in Drosophila melanogaster was assessed using an injection activity assay. The mass of female D. melanogaster used for this experiment ranged from 0.8 to 1.1 mg. Eight D. melanogaster were used as an injection control group and administered 50 nL of water. Five doses of SA8 (0.00005, 0.0005, 0.005, 0.05 and 0.5 µg per fly; 50 nL) were each administered to eight D. melanogaster (n total = 40), with observations of paralysis and mortality made at 2 and 24 h post-injection (Additional file 14: File S6). Dose–response data were analysed as described previously.
# hTRPA1 = test: Whole-cell patch-clamp, hTRPA1 in transiently transfected CHO cells; type: cell-based, human
# Description: (§1) CHO and human embryonic kidney (HEK 293) cells were grown in DMEM-high glucose supplemented with 10% FBS, 2 mM L-glutamine, 100 U/mL penicillin-g, and 100 μg/mL streptomycin (Invitrogen) at 37 °C in a 5% CO2 and 95% air humidified atmosphere. Cells were passaged twice per week following a 5-min incubation in PBS containing 0.2 g/L EDTA (Invitrogen, Carlsbad, CA).
# (§2) CHO cells (ATCC) were transiently transfected with plasmids encoding hKV1.1, hKV1.2, hKV10.1, hKCa3.1, hTRPA1, or hNaV1.7 using Lipofectamine 2000 (Invitrogen, Carlsbad, CA) following the manufacturer’s protocol, then cultured under standard conditions. The cells were co-transfected with a plasmid encoding green fluorescent protein (GFP) at a molar ratio of 10:1 except for hKV1.1, hKV1.2, and hKCa3.1 for which GFP-tagged ion channel vectors were used. Currents were recorded 24–36 h after transfection. […] Transfected cells were washed twice with 2 mL of ECS (see below) and re-plated onto 35-mm polystyrene cell culture dishes (Cellstar, Greiner Bio-One). hKV1.3 currents were recorded from activated peripheral blood mononuclear cells (PBMCs, see below) 3–4 days after activation. […]
# (§3) Conventional whole-cell patch-clamp electrophysiology was used to record ionic currents. […] Data were analysed using Prism 8 (GraphPad, CA, USA) and ClampFit 10.5 software (Molecular Devices Inc., Sunnyvale, CA). […]
# hTRPV1 = test: Whole-cell patch-clamp, hTRPV1 stably expressed in CHO cells; type: cell-based, human
# Description: as §1, §2, §3
# [1] = system: hKV11.1 channel (hERG, hKCNH2 gene); test: Whole-cell patch-clamp, hKV11.1 (hERG) stably expressed in HEK 293 cells; type: cell-based, human
# Description: as §1, §2, §3
# hKCa3.1 = test: Whole-cell patch-clamp, hKCa3.1 in transiently transfected CHO cells; type: cell-based, human
# Description: as §1, §2, §3
sequence,measurement,setting,value
"GYGKGRPGCYNHYDESICGGVIKDEHCKAGRGSRMGKFALKNCQFQCGLC (disulfide 9-47, 18-50, 27-43) [SA8]","RCF_mean (remaining current fraction, I/I0)","hKV1.3; Kv1.3, 100 nM SA8, mean, n = 3, SEM 0.00826878",1.03
same,"effect on current, in words","hKV1.3; hKV1.3, activated PBMCs, 100 nM SA8",no effect; also recorded: did not inhibit
same,flies dead,"Drosophila melanogaster; 5e-5 µg/fly, 2 h",0.0%
same,flies paralysed,"Drosophila melanogaster; 5e-5 µg/fly, 2 h",0.0%
same,number of flies dead,"Drosophila melanogaster; 5e-5 µg/fly, 2 h",0
same,number of flies paralysed,"Drosophila melanogaster; 5e-5 µg/fly, 2 h",0
same,flies dead,"Drosophila melanogaster; 5e-5 µg/fly, 24 h",0.0%
same,flies paralysed,"Drosophila melanogaster; 5e-5 µg/fly, 24 h",0.0%
same,number of flies dead,"Drosophila melanogaster; 5e-5 µg/fly, 24 h",0
same,number of flies paralysed,"Drosophila melanogaster; 5e-5 µg/fly, 24 h",0
same,flies dead,"Drosophila melanogaster; 0.0005 µg/fly, 2 h",0.0%
same,flies paralysed,"Drosophila melanogaster; 0.0005 µg/fly, 2 h",0.0%
same,number of flies dead,"Drosophila melanogaster; 0.0005 µg/fly, 2 h",0
same,number of flies paralysed,"Drosophila melanogaster; 0.0005 µg/fly, 2 h",0
same,flies dead,"Drosophila melanogaster; 0.0005 µg/fly, 24 h",0.0%
same,flies paralysed,"Drosophila melanogaster; 0.0005 µg/fly, 24 h",0.0%
same,number of flies dead,"Drosophila melanogaster; 0.0005 µg/fly, 24 h",0
same,number of flies paralysed,"Drosophila melanogaster; 0.0005 µg/fly, 24 h",0
same,flies dead,"Drosophila melanogaster; 0.005 µg/fly, 2 h",0.0%
same,flies paralysed,"Drosophila melanogaster; 0.005 µg/fly, 2 h",0.0%
same,number of flies dead,"Drosophila melanogaster; 0.005 µg/fly, 2 h",0
same,number of flies paralysed,"Drosophila melanogaster; 0.005 µg/fly, 2 h",0
same,flies dead,"Drosophila melanogaster; 0.005 µg/fly, 24 h",0.0%
same,flies paralysed,"Drosophila melanogaster; 0.005 µg/fly, 24 h",0.0%
same,number of flies dead,"Drosophila melanogaster; 0.005 µg/fly, 24 h",0
same,number of flies paralysed,"Drosophila melanogaster; 0.005 µg/fly, 24 h",0
same,flies dead,"Drosophila melanogaster; 0.05 µg/fly, 2 h",0.0%
same,flies paralysed,"Drosophila melanogaster; 0.05 µg/fly, 2 h",0.0%
same,number of flies dead,"Drosophila melanogaster; 0.05 µg/fly, 2 h",0
same,number of flies paralysed,"Drosophila melanogaster; 0.05 µg/fly, 2 h",0
same,flies dead,"Drosophila melanogaster; 0.05 µg/fly, 24 h",0.0%
same,flies paralysed,"Drosophila melanogaster; 0.05 µg/fly, 24 h",0.0%
same,number of flies dead,"Drosophila melanogaster; 0.05 µg/fly, 24 h",0
same,number of flies paralysed,"Drosophila melanogaster; 0.05 µg/fly, 24 h",0
same,"paralysis or death within 24 h, in words","Drosophila melanogaster; 0.5 µg per fly, injected",did not result in paralysis or death
same,flies dead,"Drosophila melanogaster; 0.5 µg/fly, 2 h",0.0%
same,flies paralysed,"Drosophila melanogaster; 0.5 µg/fly, 2 h",0.0%
same,number of flies dead,"Drosophila melanogaster; 0.5 µg/fly, 2 h",0
same,number of flies paralysed,"Drosophila melanogaster; 0.5 µg/fly, 2 h",0
same,flies dead,"Drosophila melanogaster; 0.5 µg/fly, 24 h",0.0%
same,flies paralysed,"Drosophila melanogaster; 0.5 µg/fly, 24 h",0.0%
same,number of flies dead,"Drosophila melanogaster; 0.5 µg/fly, 24 h",0
same,number of flies paralysed,"Drosophila melanogaster; 0.5 µg/fly, 24 h",0
same,"RCF_mean (remaining current fraction, I/I0)","hTRPA1; TRPA1, 100 nM SA8, mean, n = 5, SEM 0.0123957",0.9628
same,"effect on current, in words","hTRPA1; hTRPA1, CHO cells, activated by 100 µM AITC, 100 nM SA8",no effect; also recorded: did not inhibit
same,"RCF_mean (remaining current fraction, I/I0)","hTRPV1; TRPV1, 100 nM SA8, mean, n = 5, SEM 0.0111172",0.9606
same,"effect on current, in words","hTRPV1; hTRPV1, CHO cells, activated by 1 µM capsaicin, 100 nM SA8",no effect; also recorded: did not inhibit
same,"RCF_mean (remaining current fraction, I/I0)","[1]; Kv11.1, 100 nM SA8, mean, n = 5, SEM 0.0157239",1.029
same,"effect on current, in words","[1]; hKV11.1 (hERG), HEK 293, 100 nM SA8",no effect; also recorded: did not inhibit
same,"RCF_mean (remaining current fraction, I/I0)","hKCa3.1; KCa3.1, 100 nM SA8, mean, n = 6, SEM 0.0170688",0.9712
same,"effect on current, in words","hKCa3.1; hKCa3.1, CHO cells, 100 nM SA8",no effect; also recorded: did not inhibit
